Data as given in US4360595A, “Fermentation process for producing anandimycin” (Bristol-Myers Company, priority 1981, dated 1982).
“Also recorded” adds a separate entry of the source.

Columns and labels:
[1] = antimicrobial / antibiotic activity (in words); type: cell-based
E. coli = test: lysogenic bacterial induction (ILB) assay; type: cell-based
Source text: Analytical high pressure liquid chromatography, Bacillus subtilis zone of inhibition, lysogenic bacterial induction and P388 mouse tumor assays are used throughout the above-described separation processes to monitor relative levels of anandimycin and co-produced substances.

P-388 leukemia = test: transplantable mouse tumor P-388 leukemia; type: in vivo, mouse (CDF1 female mice); settings: filtrate of acetone trituration
Method: Anandimycin was also tested against the transplantable mouse tumor P-388 leukemia. The methodology used generally followed the protocols of the National Cancer Institute (Cancer Chemotherapy Rep., Part 3, 3, 1-103 (1972). The essential experimental details are given at the bottom of the following table. Two different dose regimens are tested: single dose on day 1 and three doses given on days 1, 5 and 9. The optimal dose was 64 mg/kg. single dose.
Tumor inoculum: 10^6 ascites cells implanted
Host: CDF1 .female. mice
Evaluation: MST = median survival
Effect: % T/C = (MST treated/MST control) ×
Criteria: % T/C ≥ 125 considered significant antitumor
Tox: […] 4/6 mice alive on day 5
AWC = average weight gain (treatedcontrol) in grams (on day 4)

COc1c(O)c2c(c3cc(C(=O)N4CCc5c4c(O)c(OC)c4[nH]c(C(=O)N6CC7CC78C6=CC(=O)c6[nH]cc(C)c68)cc54)[nH]c13)CCN2C(N)=O (stereo not drawn) [rachelmycin, reference compound]
antimicrobial / antibiotic activity [1]: possesses both antibiotic and lysogenic bacterial induction activity | lysogenic bacterial induction activity (E. coli): active; also recorded: possesses both antibiotic and lysogenic bacterial induction activity | activity in the P388 mouse tumor system (P-388 leukemia): active
